Assay [1] deals with T1, human CRF receptor I (Homo sapiens, UniProt P34998).
T1 construct: expressed in transfected cells; host or cells: CHO-K1
T1 sequence (P34998 24-415): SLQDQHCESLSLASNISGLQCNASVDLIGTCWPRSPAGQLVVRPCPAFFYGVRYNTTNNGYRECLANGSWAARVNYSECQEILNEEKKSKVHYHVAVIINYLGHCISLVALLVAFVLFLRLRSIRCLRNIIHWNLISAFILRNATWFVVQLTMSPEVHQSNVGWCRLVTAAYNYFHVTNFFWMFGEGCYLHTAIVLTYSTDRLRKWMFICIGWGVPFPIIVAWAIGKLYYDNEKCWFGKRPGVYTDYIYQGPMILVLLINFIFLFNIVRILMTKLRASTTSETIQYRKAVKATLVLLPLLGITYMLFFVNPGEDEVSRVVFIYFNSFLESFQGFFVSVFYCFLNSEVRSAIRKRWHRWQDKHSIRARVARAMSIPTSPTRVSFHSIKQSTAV
Description: Binding assay (125I-CRF, membrane fraction). The following applies: 125I-CRF 0.25 nM; membrane fraction of CHO-K1 cells forcedly expressing human CRF receptor I; room temperature, 2 hours. As to the method: The forced-expression cell strain of the human CRF receptor I (parent strain is CHO-K1 cell) was cultured until the cell was confluent and collected with a scraper. The collected cells were washed twice with PBS, and were suspended with an ice-colded binding assay buffer (Tris-HCl (50 mM, pH 7.0), EDTA (2 mM, pH 8.0), and MgCl2 (10 mM))). After fractured with a dounce-type homogenizer, the suspended cells were centrifuged at 10,000 g, and a membrane fraction was collected. The collected membrane fraction was resuspended with a little amount of the binding assay buffer, thereafter diluted with the binding assay buffer so as to have a concentration of 1 mg/mL. The obtained membrane fraction was used for a binding assay.
^125I-CRF was diluted with the binding assay buffer so as to have a concentration of 0.5 nM, whereby 50 μL of the diluted ^125I-CRF was added to a siliconized 1.5-mL tube. Next, test drugs diluted at appropriate times, such as DMSO (for general binding) or 100 μM of CRF (for non-specific binding), was added to a […]. Finally, 50 μL of the membrane fraction was added thereto and the reaction was started (final concentration of ^125I-CRF was 0.25 nM). The tube was incubated at room temperature for 2 hours. […] A membrane binding count was measured using a γ counter.
The specific binding count was obtained by subtracting the non-specific count from the measured count.

Assay [2] has as its target T1, human CRF receptor I. The assay can be described thus: Receptor antagonistic activity (cyclic AMP assay). The format is cell-based. The following applies: forced expression cell strain of human CRF receptor I; stimulated with human/rat CRF; 37° C., 15 minutes; read-out: antagonistic activity against CRF IC50 value (accumulated cyclic AMP). As to the method:
The forced expression cell strain of the human CRF receptor I was cultured at 37° C. under 5% carbon dioxide and 95% air by using a Ham's F-12 medium (F-12 nutrient mixture) containing 10% bovine fetal serum and 1% antibiotic substance-antifungal agent. On the previous day before the cyclic AMP was measured, the cells were inoculated into a 96-well plate in an amount of 1×10^4 cell/well. On the measurement day, the cells were washed twice with a Ham's F-12 medium, whereby a solution of Ham's F-12 medium/1 mM 3-isobutyl-1-methylxanthine (assay medium) (178 μL) was added to each well. After the incubation at 37° C. for 10 minutes, test drug solutions (2 μL) in various concentrations were added thereto, or DMSO (2 μL) was added to a CRF group and a blank group. An assay medium (20 μL) containing 10 nM human/rat CRF was added to wells of a compound group and the CRF group. An assay medium (20 μL) containing 0.00001% acetic acid was added to the blank group. Each group was further incubated at 37° C. for 15 minutes. […] The accumulated cyclic AMP amounts were calculated by subtracting mean values of corresponding 2 wells in the blank group from that of 2 wells. The IC50 values were calculated with non-linear regression analysis by defining logarithm concentration of the compound as independent variable and an accumulated cyclic AMP amount as dependent variable.

These results are taken from US20090281120A1, “BICYCLIC HETEROCYCLIC COMPOUND” (ONO PHARMACEUTICAL CO., LTD, priority 2005, published 2009).

With `CCC(CC)c1cc(C)c2nc(-c3ccc(OC)cc3Cl)c(C)n2c1` [Example 7, 2-(2-chloro-4-methoxyphenyl)-6-(1-ethylpropyl)-3,8-dimethylimidazo[1,2-a]pyridine], the values for the IC50 on human CRF receptor I [1] and at human CRF receptor I [2] were 12 nM and 41 nM, respectively.

As usually defined, the IC50 is the concentration needed to halve the response being measured.
